Source: publication PMC9241695, “Selective Metal Chelation by a Thiosemicarbazone Derivative Interferes with Mitochondrial Respiration and Ribosome Biogenesis in Candida albicans” (Microbiology Spectrum, 2022)
Converted amounts (≈) assume the structure as drawn.

Experiments:
[1] = tested on: C. albicans CAF2-1, zap1Δ/Δ, zap1Δ/Δ+ pZAP1; assay: Growth of zap1 mutant, complemented and wild-type strains under 19ak; type: cell-based, Candida albicans
Description: FIG 6 Effect of 19ak on ribosome biogenesis in C. albicans. (A to C) The wild strain CAF2-1, the mutant strain zap1Δ/Δ and its complemented strain zap1Δ/Δ+ pZAP1 were adjusted to 1 × 10^5 cells/mL in RPMI 1640 medium and treated with 0.25 or 0.5 μg/mL 19ak for 15 h at 30°C. Cell growth was monitored by detecting the optical density at 600 nm in a microplate reader. (A) Cells that were not treated with 19ak as a control. (B) Cells treated with 0.25 μg/mL 19ak. (C) Cells treated with 0.5 μg/mL 19ak. Each point represents the mean of three replicates. The OD600 values at the final detection point were used to analyze significant differences. (D) C. albicans zap1Δ/Δ and its complemented strain zap1Δ/Δ + pZAP1 were treated with 0.5 μg/mL 19ak for 6 h at 30°C. The transcription levels of several genes associated with ribosomal biosynthesis were determined by qPCR. The bars represent means ± SD from three independent experiments. *, P < 0.05; **, P < 0.01; ***, P < 0.001. ns, nonsignificance. (E) qPCR analysis of the expression of genes associated with iron and zinc homeostasis after TPEN treatment. C. albicans SC5314 was cultured in RPMI 1640 medium and treated with 0.05 μg/mL or 0.2 μg/mL TPEN for 6 h at 30°C for qPCR analysis.

[2] = tested on: C. albicans SC5314 cells; assay: Intracellular free iron levels using FeRhoNox-1; type: cell-based, Candida albicans; details: 0.5 μg/mL, 6 h, compared with untreated cells
Description: FeRhoNox-1 is a commercially available fluorescent probe that specifically binds Fe^2+ and is used to measure intracellular Fe^2 + content. C. albicans SC5314 cells cultured overnight were diluted to roughly 1 × 10^6 cells/mL in RPMI 1640 medium and challenged with various doses of 19ak for 6 h. Next, the cells were fixed with 4% paraformaldehyde for 1 h. After washing three times with PBS, the cells were stained with 5 μM FeRhoNox-1 for 30 min and analyzed by flow cytometry (Becton, Dickinson, CA, USA). Mammalian cells culture is according to the method described in Cytotoxicity testing which was described in Supplemental material in detail. After 12 h of treatment with different concentrations of 19ak, the supernatant was discarded and washed three times with PBS. Cells were collected after staining with FeRhoNox-1 for 30 min in the dark, and the fluorescence intensity of stained cells was analyzed by flow cytometry.

[3] = tested on: C. albicans SC5314 cells; assay: Intracellular ATP production; type: cell-based, Candida albicans; details: 0.125 μg/mL, compared with control cells
Description: albicans SC5314 cells (1 × 10^6 cells/mL) were challenged with various doses of 19ak and incubated at 30°C for 6 h, followed by staining with 20 μM Rh123 for 30 min in the dark and detection by flow cytometry (Becton Dickinson, CA, USA).
Measurement of intracellular ATP production. To explore whether 19ak affects intracellular ATP content by damaging mitochondria, we treated C. albicans SC5314 cells (1 × 10^6 cells/mL) with different doses of 19ak. After lysing the cells in lysis buffer, ATP levels were measured with the ATP Assay Kit (Beyotime, Haimen, China) according to the manufacturer's instructions. Cellular protein concentrations were determined using a BCA Protein Assay Kit (Beyotime, Haimen, China). The intracellular ATP content was calculated by referring to a standard curve and normalized using the protein content of each sample for expression as nmol/mg […]
ROS production assay. […] The fluorescence intensity was then measured by flow cytometry, and the data were analyzed with Win MDI 2.9 software.
Influence of oxidant or antioxidant molecules on 19ak activity. […] The effects of NAC, Tu and DTT on the growth of 19ak treated fungal cells were measured using a time-growth curve. […] A microplate reader was used to measure the absorbance at600 nm, and the growth curves were plotted.

[4] = tested on: C. albicans SC5314; assay: CCK-8 reduction assay, mitochondrial dehydrogenase activity; type: cell-based, Candida albicans; details: 0.125 μg/mL to 5 μg/mL
Description: The Cell Counting Kit-8
(CCK-8) assay is used to measure the dehydrogenase activity in the mitochondria of C. albicans or mammalian cells. C. albicans SC5314 (5 × 10^6 cells/mL in RPMI1640 medium) were treated with different concentrations of 19ak in 96-well plates at 30°C for 12 h or 48 h. 10 μL of CCK-8 solution was added to each well. After an additional 2 h of incubation, OD450 in each well was detected with a microplate reader. […]

[5] = tested on: human bronchial epithelial cell line 16HBE; assay: Cytotoxicity testing (MTT); type: cell-based; details: ratio of IC50 against 16HBE to MIC80 against C. albicans SC5314
Description: (§1) h (for C. albicans, C. krusei, C. tropicalis, C. parapsilosis) or 48 h (for C. neoformans, A. fumigatus). The MIC was determined based on visible growth inhibition compared with the control. All experiments were performed in duplicate.
(§2) Cytotoxicity testing. The cell lines HK2 and 16HBE were used to evaluate the cytotoxicity of 19ak, 19k and 19t. Cells in DMEM containing 10% fetal bovine serum (Gibco) were seeded in 96-well tissue culture plates at a cell density of 1 × 10^4 cells/mL and incubated for 24 h to allow adhesion. The supernatant was then replaced with fresh DMEM containing various concentrations of 19ak, 19k and 19t. The plates were subsequently incubated for an additional 48 h at 37°C with 5% CO2, followed by the addition of 10 μL of MTT solution to each well and incubation at 37°C for 4 h.
(§3) The effects of the compounds on cell proliferation were detected by measuring the absorbance at 570 nm in a microplate reader (BioTek, VT, USA). Three independent experiments were conducted. […]

[6] = Cytotoxicity testing (MTT); type: cell-based, human; details: human, 48 h, MTT
Description: as §1, §2, §3

[7] = tested on: human renal epithelial cell line HK2; assay: Cytotoxicity testing (MTT); type: cell-based; details: ratio of IC50 against HK2 to MIC80 against C. albicans SC5314
Description: as §1, §2, §3

C/C(=N\NC(=S)N(C)C)c1ccccn1 [Compound 19ak]
Activity against CAF2-1, zap1Δ/Δ and complemented strain with exogenous Zn^2+ ([1]; 100 μM Zn^2+ added): lost the activities | Growth of zap1 mutant versus complemented strain ([1]; 0.25 or 0.5 μg/mL, 15 h, 30°C): more severe growth defects | Intracellular labile ferrous ions (FeRhoNox-1) [2]: obvious drop | Decrease of intracellular ATP levels [3]: approximately 65.8% | Mitochondrial dehydrogenase activity of C. albicans (CCK-8, absorbance at 450 nm) [4]: decreased accordingly in a dose-dependent manner | Selectivity index 16HBE [5]: 55.78 | IC50 at 48 h ([6]; 16HBE cells (bronchial epithelial cell line), 16HBE cells): 6.97 µg/mL (≈ 31.4 µM) | IC50 at 48 h ([6]; HK2 cells (renal epithelial cell line), HK2 cells): 26.8 µg/mL (≈ 121 µM) | Selectivity index HK2 [7]: 214.32
